Values of other authors as cited in patent US4033823A, “Process to produce lysocellin” (Hoffmann-La Roche Inc., priority 1976, dated 1977).

Columns and labels:
[1] = system: Antibiotic resistant S. aureus; conditions: S. aureus resistant to streptomycin, erythromycin, chloramphenicol and penicillin
Bacillus subtilis [2] = conditions: Bacillus subtilis grown on liquid medium
[3] = system: Staphylococcus aureus FDA 209P
staphylococcus aureus = conditions: intraperitoneal administration
[4] = system: antibiotic resistant Staphylococcus aureus
fungi = conditions: some fungi
[5] = mice, intraperitoneally
[6] = system: Antibiotic resistant E. coli; conditions: E. coli resistant to streptomycin, chloramphenicol, kanamycin, tetracyclin and sulfonamide
Bacillus subtilis [7] = system: Bacillus subtilis
[8] = 66% dimethylformamide

For Lysocellin, which “Minimum inhibitory Concentration” value [1] is on record?
Its value is 4 µg/mL.

What about the bacterial lysis (Bacillus subtilis [2]) of the same substance?
The bacterial lysis was “caused bacterial lysis”.

And the “Minimum inhibitory Concentration” value [3]?
Its value is 10 µg/mL.

What about the “Minimum inhibitory Concentration” value (Shigella dysenteriae) of the same substance?
The value was > 100 µg/mL.

And the “Minimum inhibitory Concentration” value (Salmonella typhimurium)?
Its value is > 100 µg/mL.

What about the “activity against staphylococcus aureus infection in mice” value (staphylococcus aureus) of the same substance?
Its value is “inactive”.

What about the Antimicrobial activity (gram-negative bacteria) of the same substance?
Its Antimicrobial activity is “not active”.

And the Antimicrobial activity [4]?
Its Antimicrobial activity is “active”.

And the Antimicrobial activity (fungi)?
The Antimicrobial activity was “active against some fungi”.

What about the LD50 [5] of the same substance?
The LD50 was “about 70 mg/kg”.

What about the “Minimum inhibitory Concentration” value [6] of the same substance?
The value was > 100 µg/mL.

What about the “Minimum inhibitory Concentration” value (Alternaria kikuchiana) of the same substance?
Its value is 100 µg/mL.

What about the “Minimum inhibitory Concentration” value (Bacillus subtilis [7]) of the same substance?
Its value is 10 µg/mL.

What about the “Minimum inhibitory Concentration” value (Mycobacterium smegmatis) of the same substance?
The value was 20 µg/mL.

What about the “Minimum inhibitory Concentration” value (Pseudomonas aeruginosa) of the same substance?
The value was > 100 µg/mL.

And the Antimicrobial activity (gram-positive bacteria)?
Its Antimicrobial activity is “active”.

What about the “Minimum inhibitory Concentration” value (Botrytis cinerea) of the same substance?
The value was 50 µg/mL.

What about the “Minimum inhibitory Concentration” value (Escherichia coli) of the same substance?
The value was > 100 µg/mL.

What about the “Minimum inhibitory Concentration” value (Helminthosporium oryzae) of the same substance?
The value was 50 µg/mL.

What about the “pKa'” value [8] of the same substance?
The value was 6.6.

What about the “Minimum inhibitory Concentration” value (Sarcina lutea) of the same substance?
Its value is 10 µg/mL.

And the “Minimum inhibitory Concentration” value (Fusarium oxysporum)?
The value was 100 µg/mL.
